Data published in US20170158636A1, “FUNCTIONALISED AND SUBSTITUTED CARBAZOLES AS ANTI-CANCER AGENTS” (Novogen Ltd., priority 2014, published 2017).

Columns and labels:
Assay type in all cases: cell-based
IL-23 = assay: Cytokine release from PMA/ionomycin-stimulated PBMCs (HTRF); details: PBMC, human PBMCs, PMA and ionomycin
Protocol: (§1) The ability of compounds 1004, 1007 and 1018 to inhibit the release of cytokines TNF-α, IFN-γ, IL-6, IL-21, IL-17A and IL-23 was evaluated in vitro (Tables 2 and 3). Briefly, human peripheral blood mononuclear cells (PBMCs) were isolated from human peripheral blood by Histopaque density gradient centrifugation. The freshly isolated PBMCs were seeded at 50,000 cells/well in a 96-well half area plate. PBMCs were dosed with the test compounds (at 10 μM, 1 μM and 0.1 μM) and then incubated at 37° C. and 5% CO2 for 2 hours. To stimulate release of the cytokines IFN-γ, IL-21, IL-17A and IL-23, the PBMCs were treated with 50 ng/mL of phorbol 12-myristate 13-acetate (PMA) and 1 μg/mL of ionomycin and to stimulate the release of TNF-α and IL-6, PBMCs were treated with 100 ng/mL of lipopolysaccharide (LPS) from gram-negative bacteria. The PBMCs were then incubated at 37° C. and 5% CO2 for a further 6 hours and the cell supernatant was collected and a Homogenous Time Resolved Fluorescence (HTRF) assay was carried out following the manufacturer's instructions. Cytokine release from the PBMCs was captured using a Perkin Elmer ENVISION 2104 microplate reader set at 615 nm and 665 nm respectively.

IFN-γ = assay: as above; details: PBMC, human PBMCs, PMA and ionomycin
Protocol: as §1

IL-21 = assay: as above; details: PBMC, human PBMCs, PMA and ionomycin
Protocol: as §1

IL-17A = assay: as above; details: PBMC, human PBMCs, PMA and ionomycin
Protocol: as §1

[1] = test system: actin cytoskeleton in SK-N-SH neuroblastoma cells; assay: Microfilament disruption assay (phalloidin staining, linear feature quantitation); details: 0-40 μM, 24 hours post treatment
Protocol: FIG. 1: Imaging and quantitation of actin filaments in SK-N-SH neuroblastoma cells treated with compound (A) 1007, (B) 1013 and (C) 1016. Cells were stained with 488-Atto-Phallodin and DAPI to visualize the actin filament bundles and the nucleus, respectively. Shown in the top panel is a representative gray scale immunofluorescent image from control (vehicle alone), 5 μM and 10 μM treated cells. […] The coloured lines indicate the detected actin filaments. Also shown is the quantitation of cell number, filament number/cell and filament number/cell area (μM^2). Statistical analysis was performed using a one way ANNOVA-multiple comparison where each drug treated group was compared to the control. ****p<0.0001, […].
The ability of compounds 1007, 1013 and 1016 to disrupt the actin cytoskeleton was assessed in vitro using the microfilament disruption assay (FIG. 1).
Briefly, SK-N-SH neuroblastoma cells were seeded at 1800 cells/well in a 384 Perkin Elmer High Content Imaging “Cell Carrier” plate and left to plate down 24 hours prior to treatment. Cells were then treated with 0-40 μM of the test compounds (1:2 serial dilution in a 10 point dose response). 24 hours post treatment, cells were fixed with 4% w/v paraformaldehyde (PBS), permeabilized with Triton-X-100 and stained with 488-Atto-Phallodin and DAPI to visualize the actin filament bundles and the nucleus respectively. Single plane images were obtained on the Perkin Elmer Opera confocal microscope using a 20× objective. Twelve fields of view per condition (representing approximately 300-800 cells) were imaged. Images were then exported and changes in the organization and numbers of actin filaments within the cell were quantitated using a linear feature detection algorithm developed by CSIRO (Vindin et al. 2014). This algorithm detects the “ridge lines” or “peaks” in local pixel intensity in the cell image. It is these “ridge lines” that correspond to actin filament bundles and allow us to quantitate the number of filaments per cell.

[2] = test system: DU145 prostate cancer cells; assay: Anti-proliferative activity, cell-titre luminescent viability assay; details: Homo sapiens, DU-145, 72 hours exposure
Outline: (§2)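 Seeded cell lines attached 24 h (37° C, 5% CO2), then received compound for 72 h before a 30 min luminescent viability read versus untreated control. Four-point series (0.03–30 μM) gave IC50 by linear regression of semi-log percent-of-control plots; six-point series (0.1–30 μM) gave vehicle-normalized EC50 from variable-slope sigmoidal fits.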

[3] = test system: A549 lung (NSLC) cancer cells; assay: as above; details: Homo sapiens, 72 hours exposure
Outline: as §2

SK-Mel-28 melanoma cells = assay: as above; details: Homo sapiens, 72 hours exposure
Outline: as §2

[4] = test system: SK-N-SH neuroblastoma cells; assay: as above; details: Homo sapiens, 72 hours exposure
Outline: as §2

[5] = test system: MDA-MB-231 breast cancer cells; assay: as above; details: Homo sapiens, 72 hours exposure
Outline: as §2

[6] = test system: PC3 prostate cancer cells; assay: as above; details: 72 hours exposure
Outline: as §2

[7] = test system: CaCo2 colorectal cancer cells; assay: as above; details: Homo sapiens, Caco-2, 72 hours exposure
Outline: as §2

- IC50 [2]: 3 µM
- IC50 [3]: 1.9 µM
- IC50 (SK-Mel-28 melanoma cells): 1.2 µM
- IC50 [4]: 1.6 µM
- IC50 [5]: 2.4 µM
- IC50 [6]: 3.2 µM
- IC50 [7]: 2.8 µM
SMILES: CCN(CC)CCCn1c2ccccc2c2cc(C(=O)N3CCN(CCc4ccc(F)cc4)CC3)ccc21 [Compound 1007, (9-(3-(diethylamino)propyl)-9H-carbazol-3-yl)(4-(4-fluorophenethyl)piperazin-1-yl)methanone]
- inhibition at 0.1 µM (IL-23; 0.1 μM): -15%
- inhibition at 1 µM (IL-23; 1 μM): -11%
- inhibition at 10 µM (IL-23; 10 μM): -3%
- inhibition at 0.1 µM (IFN-γ; 0.1 μM): 8%
- inhibition at 1 µM (IFN-γ; 1 μM): 53%
- inhibition at 10 µM (IFN-γ; 10 μM): 90%
- inhibition at 0.1 µM (IL-21; 0.1 μM): -7%
- inhibition at 1 µM (IL-21; 1 μM): -9%
- inhibition at 10 µM (IL-21; 10 μM): -4%
- inhibition at 0.1 µM (IL-17A; 0.1 μM): -4%
- inhibition at 1 µM (IL-17A; 1 μM): 22%
- inhibition at 10 µM (IL-17A; 10 μM): 59%
- disruption of the actin cytoskeleton [1]: disrupt the actin cytoskeleton in a dose-dependent manner
